# Results published in patent publication US8513260B2, “Pyrazinylpyrazoles” (Bayer CropScience AG, priority 2009, dated 2013).
# Test system: adult engorged Boophilus microplus females of the SP-resistant Parkhurst strain
# Test: Boophilus microplus (dip)
# Type: in vivo
# Settings: 100 ppm, after 7 days, laying of fertile eggs
# Experimental: Boophilus microplus (dip)
# Test animals: adult engorged Boophilus microplus females of the SP-resistant Parkhurst strain
# Solvent: dimethyl sulphoxide
# 10 mg of active ingredient are dissolved in 0.5 ml of dimethyl sulphoxide. For the purpose of preparing a suitable formulation, the active ingredient solution is diluted with water to the concentration desired in each case. This active ingredient preparation is pipetted into tubes. 8-10 ticks are transferred into a further tube with holes. The tube is immersed into the active ingredient formulation, and all ticks are completely wetted. After the liquid has run out, the ticks are transferred onto filter discs in plastic dishes and stored in a climate-controlled room. The activity is assessed after 7 days by laying of fertile eggs. Eggs whose fertility is not outwardly visible are stored in glass tubes in a climate-controlled cabinet until the larvae hatch. Efficacy of 100% means that none of the ticks has laid any fertile eggs.
row,Structure (SMILES),efficacy
1,COc1nccnc1-n1nc(C(F)(F)C(F)(F)F)c(-c2cc(Cl)cc(C(F)(F)F)c2)c1N [Ex. 15],100%
2,COc1nccnc1-n1nc(C(F)(F)Cl)c(-c2cc(Cl)cc(C(F)(F)F)c2)c1N [Ex. 17],100%
3,COc1nccnc1-n1nc(C(F)(F)F)c(-c2ccc(Cl)c(C(F)(F)F)c2)c1N [Ex. 18],100%
4,COc1nccnc1-n1nc(C(C)(F)F)c(-c2ccc(Cl)c(C(F)(F)F)c2)c1N [Ex. 20],100%
5,COc1nccnc1-n1nc(C(F)(F)C(F)(F)OC)c(-c2cc(Cl)cc(C(F)(F)F)c2)c1N [Ex. 47],100%
6,COc1nccnc1-n1nc(C(F)(F)F)c(-c2cc(Br)c3c(c2)OCCO3)c1N [Ex. 132],100%
7,COc1nccnc1-n1nc(C(F)(F)F)c(-c2cc(Cl)c3c(c2)OCCO3)c1N [Ex. 133],95%

# Test system: Boophilus microplus
# Test: Boophilus microplus test (BOOPMI injection)
# Type: in vivo
# Settings: 20 μg animal; injection into the abdomen; after 7 days, laying of fertile eggs
# Experimental: Boophilus microplus Test (BOOPMI Injection) Solvent: dimethyl sulphoxide To prepare an appropriate active ingredient formulation, 10 mg of active ingredient are mixed with 0.5 ml of solvent and the concentrate is diluted with solvent to the desired concentration. The active ingredient solution is injected into the abdomen (Boophilus microplus), and the animals are transferred into dishes and stored in a climate-controlled room. The efficacy is assessed by laying of fertile eggs. After 7 days, the efficacy in % is determined. 100% means that none of the ticks has laid any fertile eggs.
row,Structure (SMILES),efficacy
1,COc1nccnc1-n1nc(C(F)(F)C(F)(F)F)c(-c2cc(Cl)cc(C(F)(F)F)c2)c1N [Ex. 15],100%
2,COc1nccnc1-n1nc(C(F)(F)Cl)c(-c2cc(Cl)cc(C(F)(F)F)c2)c1N [Ex. 17],100%
3,COc1nccnc1-n1nc(C(F)(F)F)c(-c2ccc(Cl)c(C(F)(F)F)c2)c1N [Ex. 18],100%
4,COc1nccnc1-n1nc(C(C)(F)F)c(-c2ccc(Cl)c(C(F)(F)F)c2)c1N [Ex. 20],100%
5,COc1nccnc1-n1nc(C(F)(F)C(F)(F)OC)c(-c2cc(Cl)cc(C(F)(F)F)c2)c1N [Ex. 47],100%
6,COc1nccnc1-n1nc(C(F)(F)F)c(-c2cc(Br)c3c(c2)OCCO3)c1N [Ex. 132],100%
7,COc1nccnc1-n1nc(C(F)(F)F)c(-c2cc(Cl)c3c(c2)OCCO3)c1N [Ex. 133],100%

# Test system: unfed adult fleas (Ctenocephalides felis)
# Test: Ctenocephalides felis test (CTECFE)
# Type: in vivo
# Settings: 100 ppm in citrated cow's blood; after 2 days
# Experimental: Ctenocephalides felis Test ([…]) Solvent: 1 part by weight of dimethyl sulphoxide For the purpose of preparing an appropriate active ingredient formulation, 10 mg of active ingredient are mixed with 0.5 ml of dimethyl sulphoxide. A portion of the concentrate is diluted with citrated cow's blood and the desired concentration is established. About 20 unfed adult fleas (Ctenocephalides felis) are introduced into a chamber closed at the top and bottom with gauze. A metal cylinder, the bottom of which is closed with Parafilm, is placed onto the chamber. The cylinder contains the blood/active ingredient preparation, which can be imbibed by the fleas through the Parafilm membrane. After 2 days, the kill in % is determined. 100% means that all fleas have been killed; 0% means that none of the fleas have been killed.
row,Structure (SMILES),efficacy (kill)
1,COc1nccnc1-n1nc(C(F)(F)C(F)(F)F)c(-c2cc(Cl)cc(C(F)(F)F)c2)c1N [Ex. 15],95%
2,COc1nccnc1-n1nc(C(F)(F)Cl)c(-c2cc(Cl)cc(C(F)(F)F)c2)c1N [Ex. 17],100%
3,COc1nccnc1-n1nc(C(F)(F)C(F)(F)OC)c(-c2cc(Cl)cc(C(F)(F)F)c2)c1N [Ex. 47],100%
4,COc1nccnc1-n1nc(C(F)(F)F)c(-c2cc(Br)c3c(c2)OCCO3)c1N [Ex. 132],100%
5,COc1nccnc1-n1nc(C(F)(F)F)c(-c2cc(Cl)c3c(c2)OCCO3)c1N [Ex. 133],100%

# Test system: adult Musca domestica
# Test: Musca domestica test
# Type: in vivo
# Settings: 20 ppm; after 2 days
# Experimental: Musca domestica Test Solvent: dimethyl sulphoxide To prepare an appropriate active ingredient formulation, 10 mg of active ingredient are mixed with 0.5 ml of dimethyl sulphoxide and the concentrate is diluted with water to the desired concentration. Vessels containing a sponge treated with the active ingredient preparation of the desired concentration are populated with adult Musca domestica. After 2 days, the kill in % is determined. 100% means that all of the flies have been killed; 0% means that none of the flies have been killed.
row,Structure (SMILES),efficacy (kill)
1,COc1nccnc1-n1nc(C(F)(F)F)c(-c2cc(Cl)c3c(c2)OCCO3)c1N [Ex. 133],80%

# Same assay, conditions: 100 ppm; after 2 days
row,Structure (SMILES),efficacy (kill)
1,COc1nccnc1-n1nc(C(F)(F)C(F)(F)F)c(-c2cc(Cl)cc(C(F)(F)F)c2)c1N [Ex. 15],95%
2,COc1nccnc1-n1nc(C(F)(F)Cl)c(-c2cc(Cl)cc(C(F)(F)F)c2)c1N [Ex. 17],100%
3,COc1nccnc1-n1nc(C(F)(F)C(F)(F)OC)c(-c2cc(Cl)cc(C(F)(F)F)c2)c1N [Ex. 47],80%
4,COc1nccnc1-n1nc(C(F)(F)F)c(-c2cc(Br)c3c(c2)OCCO3)c1N [Ex. 132],80%

# Test system: green peach aphid (Myzus persicae)
# Test: Myzus test (MYZUPE spray treatment)
# Type: in vivo
# Settings: 500 g/ha, Chinese cabbage discs, after 6 days
# Experimental: Myzus Test (MYZUPE Spray Treatment) Solvent: 78 parts by weight of acetone • • 1.5 parts by weight of dimethylformamide Emulsifier: 0.5 part by weight of alkylaryl polyglycol ether To prepare an appropriate active ingredient preparation, 1 part by weight of active ingredient is mixed with the stated amounts of solvent and emulsifier, and the concentrate is diluted with emulsifier-containing water to the desired concentration. Discs of Chinese cabbage (Brassica pekinensis) infested by all stages of the green peach aphid (Myzus persicae) are sprayed with an active ingredient preparation of the desired concentration. After 6 days, the efficacy in % is determined. 100% means that all of the aphids have been destroyed; 0% means that none of the aphids have been destroyed.
row,Structure (SMILES),efficacy
1,COc1nccnc1-n1nc(C(F)(F)C(F)(F)F)c(-c2cc(Cl)cc(C(F)(F)F)c2)c1N [Ex. 15],100%
2,COc1nccnc1-n1nc(C(F)(F)Cl)c(-c2cc(Cl)cc(C(F)(F)F)c2)c1N [Ex. 17],100%
3,COc1nccnc1-n1nc(C(F)(F)F)c(-c2ccc(Cl)c(C(F)(F)F)c2)c1N [Ex. 18],90%
4,COc1nccnc1-n1nc(C(C)(F)F)c(-c2ccc(Cl)c(C(F)(F)F)c2)c1N [Ex. 20],100%
5,COc1nccnc1-n1nc(C(F)(F)C(F)(F)OC)c(-c2cc(Cl)cc(C(F)(F)F)c2)c1N [Ex. 47],80%

# Test system: larvae of the mustard beetle (Phaedon cochleariae)
# Test: Phaedon test (PHAECO spray treatment)
# Type: in vivo
# Settings: 500 g/ha, Chinese cabbage discs, after 7 days
# Experimental: Phaedon Test ([…] Spray Treatment) Solvent: 78.0 parts by weight of acetone • • 1.5 parts by weight of dimethylformamide Emulsifier: 0.5 part by weight of alkylaryl polyglycol ether To prepare an appropriate active ingredient preparation, 1 part by weight of active ingredient is mixed with the stated amounts of solvent and emulsifier, and the concentrate is diluted with emulsifier-containing water to the desired concentration. Discs of Chinese cabbage (Brassica pekinensis) are sprayed with an active ingredient preparation of the desired concentration and, after drying, populated with larvae of the mustard beetle (Phaedon cochleariae). After 7 days, the efficacy in % is determined. 100% means that all beetle larvae have been killed; 0% means that none of the beetle larvae have been killed.
row,Structure (SMILES),efficacy
1,COc1nccnc1-n1nc(C(F)(F)C(F)(F)F)c(-c2cc(Cl)cc(C(F)(F)F)c2)c1N [Ex. 15],100%
2,COc1nccnc1-n1nc(C(F)(F)Cl)c(-c2cc(Cl)cc(C(F)(F)F)c2)c1N [Ex. 17],100%
3,COc1nccnc1-n1nc(C(F)(F)F)c(-c2ccc(Cl)c(C(F)(F)F)c2)c1N [Ex. 18],100%
4,COc1nccnc1-n1nc(C(C)(F)F)c(-c2ccc(Cl)c(C(F)(F)F)c2)c1N [Ex. 20],100%
5,COc1nccnc1-n1nc(C(F)(F)C(F)(F)OC)c(-c2cc(Cl)cc(C(F)(F)F)c2)c1N [Ex. 47],100%
6,COc1nccnc1-n1nc(C(F)(F)F)c(-c2cc(Br)c3c(c2)OCCO3)c1N [Ex. 132],100%
7,COc1nccnc1-n1nc(C(F)(F)F)c(-c2cc(Cl)c3c(c2)OCCO3)c1N [Ex. 133],100%

# Test system: caterpillars of the armyworm (Spodoptera frugiperda)
# Test: Spodoptera frugiperda test (SPODFR spray treatment)
# Type: in vivo
# Settings: 500 g/ha, maize leaf discs, after 7 days
# Experimental: Spodoptera frugiperda Test (SPODFR Spray Treatment) Solvent: 78.0 parts by weight of acetone • • 1.5 parts by weight of dimethylformamide Emulsifier: 0.5 part by weight of alkylaryl polyglycol ether To prepare an appropriate active ingredient preparation, 1 part by weight of active ingredient is mixed with the stated amounts of solvent and emulsifier, and the concentrate is diluted with emulsifier-containing water to the desired concentration. Discs of maize leaves (Zea mays) are sprayed with an active ingredient preparation of the desired concentration and, after drying, populated with caterpillars of the armyworm (Spodoptera frugiperda). After 7 days, the efficacy in % is determined. 100% means that all caterpillars have been killed; 0% means that none of the caterpillars have been killed.
row,Structure (SMILES),efficacy
1,COc1nccnc1-n1nc(C(F)(F)C(F)(F)F)c(-c2cc(Cl)cc(C(F)(F)F)c2)c1N [Ex. 15],100%
2,COc1nccnc1-n1nc(C(F)(F)Cl)c(-c2cc(Cl)cc(C(F)(F)F)c2)c1N [Ex. 17],100%
3,COc1nccnc1-n1nc(C(F)(F)F)c(-c2ccc(Cl)c(C(F)(F)F)c2)c1N [Ex. 18],83%
4,COc1nccnc1-n1nc(C(C)(F)F)c(-c2ccc(Cl)c(C(F)(F)F)c2)c1N [Ex. 20],100%
5,COc1nccnc1-n1nc(C(F)(F)C(F)(F)OC)c(-c2cc(Cl)cc(C(F)(F)F)c2)c1N [Ex. 47],100%
6,COc1nccnc1-n1nc(C(F)(F)F)c(-c2cc(Br)c3c(c2)OCCO3)c1N [Ex. 132],100%
7,COc1nccnc1-n1nc(C(F)(F)F)c(-c2cc(Cl)c3c(c2)OCCO3)c1N [Ex. 133],100%

# Test system: red spider mite (Tetranychus urticae)
# Test: Tetranychus test, OP-resistant (TETRUR spray treatment)
# Type: in vivo
# Settings: 100 g/ha, bean leaf discs, after 6 days
# Experimental: Tetranychus Test, OP-Resistant (TETRUR Spray Treatment)
# Solvent: 78.0 parts by weight of acetone • • 1.5 parts by weight of dimethylformamide
# Emulsifier: 0.5 part by weight of alkylaryl polyglycol ether
# To prepare an appropriate active ingredient preparation, 1 part by weight of active ingredient is mixed with the stated amounts of solvent and emulsifier, and the concentrate is diluted with emulsifier-containing water to the desired concentration. Discs of bean leaves (Phaseolus vulgaris) infested by all stages of the red spider mite (Tetranychus urticae) are sprayed with an active ingredient preparation of the desired concentration. After 6 days, the efficacy in % is determined. 100% means that all spider mites have been killed; 0% means that none of the spider mites have been killed.
row,Structure (SMILES),efficacy
1,COc1nccnc1-n1nc(C(F)(F)F)c(-c2cc(Cl)c3c(c2)OCCO3)c1N [Ex. 133],90%

# Same assay, conditions: 500 g/ha, bean leaf discs, after 6 days
row,Structure (SMILES),efficacy
1,COc1nccnc1-n1nc(C(F)(F)C(F)(F)F)c(-c2cc(Cl)cc(C(F)(F)F)c2)c1N [Ex. 15],100%
2,COc1nccnc1-n1nc(C(F)(F)Cl)c(-c2cc(Cl)cc(C(F)(F)F)c2)c1N [Ex. 17],100%
3,COc1nccnc1-n1nc(C(F)(F)F)c(-c2ccc(Cl)c(C(F)(F)F)c2)c1N [Ex. 18],100%
4,COc1nccnc1-n1nc(C(C)(F)F)c(-c2ccc(Cl)c(C(F)(F)F)c2)c1N [Ex. 20],100%
5,COc1nccnc1-n1nc(C(F)(F)C(F)(F)OC)c(-c2cc(Cl)cc(C(F)(F)F)c2)c1N [Ex. 47],100%
6,COc1nccnc1-n1nc(C(F)(F)F)c(-c2cc(Br)c3c(c2)OCCO3)c1N [Ex. 132],80%
